Measurements taken from patent EP0367302A2, “Process for semi-synthesis of human insulin, water-soluble cross-linked Achromobacter protease I for use therein and a process for preparing the same” (priority 1982, dated 1983).
Like-named read-outs stand apart in the source and are kept apart here.

How the values were obtained:
PLP-Ia = type: biochemical, Achromobacter lyticus M 497-1
[1] = molecular target: water-soluble cross-linked polymer of PLP (Achromobacter lyticus, UniProt P15636); test: Activity to substrates (substrate specificity), cross-linked polymer; type: biochemical; settings: enzyme: Cross-Linked Polymer (0.144 u); pH 9.5, 30°C; Benzoyl lysine-p-nitroanilide = 100
Method: (§1) The activity of the enzyme was measured as follows. […] After preliminarily warming at 30°C, 0.1 mℓ of the enzyme was added to the mixture and the mixture was reacted accurately for 25 minutes at 30°C. After completion of the reaction, 1.0 mℓ of a 45% acetic acid aqueous solution was added to discontinue the reaction. Then, the reaction liquid was colorimetrically measured at wavelength of 405 nm to determine absorbance. As an enzyme unit, an amount of enzyme producing 1 µmole/min of p-nitroaniline at 30°C was made 1 unit (u). Enzyme titer was calculated according to the following equation. [formula] […] Thereafter, activities to the respective substrates were measured according to the method for measuring activity described above. Results of Table 8 were obtained.

[2] = molecular target: PLP prior to Polymerization (Achromobacter lyticus, UniProt P15636); test: Activity to substrates (substrate specificity), PLP prior to polymerization; type: biochemical; settings: enzyme: PLP prior to Polymerization; pH 9.5, 30°C; Benzoyl lysine-p-nitroanilide = 100
Method: as §1

Achromobacter protease I = Achromobacter protease I (Achromobacter lyticus, UniProt P15636); settings: cited from earlier work
Chain of Achromobacter protease I (P15636 206-473 limits assumed): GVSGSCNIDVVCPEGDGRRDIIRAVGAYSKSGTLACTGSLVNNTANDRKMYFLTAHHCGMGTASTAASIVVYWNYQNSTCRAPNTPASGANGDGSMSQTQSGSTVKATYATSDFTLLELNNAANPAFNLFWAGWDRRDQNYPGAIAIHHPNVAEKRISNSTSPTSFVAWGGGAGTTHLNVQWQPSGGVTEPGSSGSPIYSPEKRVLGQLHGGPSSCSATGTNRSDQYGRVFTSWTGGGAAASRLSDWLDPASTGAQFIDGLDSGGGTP

Chain of PLP prior to Polymerization (P15636 206-473 limits assumed): as above
Chain of water-soluble cross-linked polymer of PLP (P15636 206-473 limits assumed): as above

Relative Activity [1] | Relative Activity [2] | Compound | Relative Activity (PLP-Ia; 1000 µM) | other results
 |  | Cc1ccc(S(=O)(=O)N[C@@H](CCCNC(=N)N)C(=O)CCl)cc1 [tosyl-L-arginine chloromethyl ketone] |  | Relative Activity (PLP-Ia; 100 µM): 79.1%
0.00% | 0.00% | N[C@@H](CCC(=O)O)C(=O)Nc1ccc([N+](=O)[O-])cc1 [Glutamic acid-p-nitroanilide] |  | 
 |  | diisopropyl phosphochloride |  | inhibition of the enzyme (in words) (Achromobacter protease I): strongly inhibited
100% | 100% | NCCCC[C@H](NC(=O)c1ccccc1)C(=O)Nc1ccc([N+](=O)[O-])cc1 [Benzoyl lysine-p-nitroanilide] |  | 
5.6% | 2.4% | NCCCC[C@H](N)C(=O)Nc1ccc([N+](=O)[O-])cc1 [Lysine-p-nitroanilide] |  | 
 |  | NiCℓ₂ | 83.8% | 
 |  | Cc1ccc(S(=O)(=O)N[C@@H](CCCCN)C(=O)CCl)cc1 [tosyl-L-lysine chloromethyl ketone] |  | inhibition of the enzyme (in words) (PLP-Ia): undergoes inhibition; Relative Activity (PLP-Ia; 100 µM): 0%; inhibition of the enzyme (in words) (Achromobacter protease I): strongly inhibited
 |  | [Cl-].[Na+] [NaCℓ₂] |  | Relative Activity (PLP-Ia; bz-lys-p-na amidase assay, pH 9.5, 25 min, 1000 µM): 99.0%
0.00% | 0.00% | CC(=O)N[C@@H](Cc1ccccc1)C(=O)Nc1ccc([N+](=O)[O-])cc1 [Acetylphenylalanine-p-nitroanilide] |  | 
 |  | c1cnc2c(c1)ccc1cccnc12 [o-phenanthroline] | 99.3% | inhibition of the enzyme (in words) (Achromobacter protease I): not inhibited
 |  | MgCℓ₂ | 95.3% | 
 |  | [Ca+2].[Cl-].[Cl-] [CaCℓ₂] | 102.2% | 
 |  | O=C(O)CI [monoiodoacetate] | 84.4% | 
 |  | [Cl][Hg][Cl] [HgCℓ₂] |  | Relative Activity (PLP-Ia; 100 µM): 109.4%
0.00% | 0.00% | CC(C)C[C@H](N)C(=O)Nc1ccc([N+](=O)[O-])cc1 [Leucine-p-nitroanilide] |  | 
 |  | O[C@H](CS)[C@H](O)CS (racemic) [dithiothreitol] | 103.9% | 
0.04% | 0.01% | N=C(N)NCCC[C@H](NC(=O)c1ccccc1)C(=O)Nc1ccc([N+](=O)[O-])cc1 [Benzoyl arginine-p-nitroanilide] |  | 
 |  | O=C(O)c1cc[c]([Hg][Cl])cc1 [p-chloromercury benzoate] |  | Relative Activity (PLP-Ia; 100 µM): 94.8%; inhibition of the enzyme (in words) (Achromobacter protease I): not inhibited
 |  | MnCℓ₂ | 101.3% | 
0.00% | 0.00% | O=C(N[C@@H](Cc1ccc(O)cc1)C(=O)Nc1ccc([N+](=O)[O-])cc1)c1ccccc1 [Benzoyl tyrosine-p-nitroanilide] |  | 
 |  | O=S(=O)(F)Cc1ccccc1 [phenylmethylsulfonyl fluoride] |  | inhibition of the enzyme (in words) (PLP-Ia): undergoes inhibition; Relative Activity (PLP-Ia; 2000 µM): 18.3%
 |  | CoCℓ₂ | 98.1% | 
 |  | Cc1ccc(S(=O)(=O)N[C@@H](Cc2ccccc2)C(=O)CCl)cc1 [tosyl-L-phenylalanine chloromethyl ketone] | 92.2% | inhibition of the enzyme (in words) (Achromobacter protease I): not inhibited
0.00% | 0.00% | C[C@H](N)C(=O)Nc1ccc([N+](=O)[O-])cc1 [Alanine-p-nitroanilide] |  | 
 |  | N[C@@H](CS)C(=O)O [L-cystein] | 97.8% | 
 |  | [Cl-].[Cl-].[Zn+2] [ZnCℓ₂] | 44.1% | inhibition of the enzyme (in words) (PLP-Ia): inhibited
